Laboratory results published in US12201610B2, “Compositions comprising aticaprant” (Janssen Pharmaceuticals, Inc., priority 2022, dated 2025).

System: subjects with MDD
Test: MADRS total score, adjunctive aticaprant vs placebo in MDD (Example 6)
[1] = eITT Analysis Set, High anhedonia, Treatment Week 1
[2] = eITT Analysis Set, High anhedonia, Treatment Week 3
[3] = eITT Analysis Set, High anhedonia, Treatment Week 4
[4] = eITT Analysis Set, High anhedonia, Treatment Week 5
[5] = eITT Analysis Set, High anhedonia, Treatment Week 6
[6] = eITT Analysis Set, Low anhedonia, Treatment Week 1
[7] = eITT Analysis Set, Low anhedonia, Treatment Week 3
[8] = eITT Analysis Set, Low anhedonia, Treatment Week 4
[9] = eITT Analysis Set, Low anhedonia, Treatment Week 5
[10] = eITT Analysis Set, Low anhedonia, Treatment Week 6
[11] = eITT, Treatment Week 1, 10 mg adjunctive to SSRI/SNRI
[12] = eITT, Treatment Week 3, 10 mg adjunctive to SSRI/SNRI
[13] = eITT, Treatment Week 4, 10 mg adjunctive to SSRI/SNRI
[14] = eITT, Treatment Week 5, 10 mg adjunctive to SSRI/SNRI
[15] = eITT, Treatment Week 6, 10 mg adjunctive to SSRI/SNRI
[16] = fITT Analysis Set, High anhedonia, Treatment Week 1
[17] = fITT Analysis Set, High anhedonia, Treatment Week 3

Cc1cc(C)cc(C2CCCN2Cc2ccc(Oc3ccc(C(N)=O)cc3F)cc2)c1 (stereo not drawn) [aticaprant, 3-fluoro-4-4-2-(3,5-dimethylphenyl)pyrrolidin-1-yl-methylphenoxybenzamide]
Change from Treatment Baseline in MADRS Total Score, Least Squares Mean (Standard Error) (Treatment Week 6, both responders and non-responders during placebo lead-in, 10 mg): −9.6 ± 0.79 score on a scale
MADRS Total Score Least Squares Mean Difference, point estimate (Treatment Week 6, both responders and non-responders during placebo lead-in, 10 mg vs placebo): −3.1 score on a scale
MADRS Total Score Effect size [1]: −0.39
MADRS Total Score Mean Change from Baseline (SD) [1]: −4.6 (5.25)
MADRS Total Score Mean Change to Placebo (SD pooled) [1]: −1.8 (4.69)
MADRS Total Score Effect size [2]: −0.46
MADRS Total Score Mean Change from Baseline (SD) [2]: −6.7 (6.83)
MADRS Total Score Mean Change to Placebo (SD pooled) [2]: −3.0 (6.59)
MADRS Total Score Effect size [3]: −0.30
MADRS Total Score Mean Change from Baseline (SD) [3]: −8.5 (7.26)
MADRS Total Score Mean Change to Placebo (SD pooled) [3]: −2.2 (7.30)
MADRS Total Score Effect size [4]: −0.33
MADRS Total Score Mean Change from Baseline (SD) [4]: −9.7 (8.18)
MADRS Total Score Mean Change to Placebo (SD pooled) [4]: −2.6 (7.93)
MADRS Total Score Effect size [5]: −0.38
MADRS Total Score Mean Change from Baseline (SD) [5]: −11.5 (8.95)
MADRS Total Score Mean Change to Placebo (SD pooled) [5]: −3.4 (8.98)
MADRS Total Score Effect size [6]: −0.12
MADRS Total Score Mean Change from Baseline (SD) [6]: −2.3 (5.03)
MADRS Total Score Mean Change to Placebo (SD pooled) [6]: −0.5 (4.30)
MADRS Total Score Effect size [7]: −0.01
MADRS Total Score Mean Change from Baseline (SD) [7]: −4.9 (5.99)
MADRS Total Score Mean Change to Placebo (SD pooled) [7]: −0.1 (5.85)
MADRS Total Score Effect size [8]: 0.01
MADRS Total Score Mean Change from Baseline (SD) [8]: −6.4 (7.40)
MADRS Total Score Mean Change to Placebo (SD pooled) [8]: 0.0 (6.80)
MADRS Total Score Effect size [9]: 0.05
MADRS Total Score Mean Change from Baseline (SD) [9]: −7.2 (6.46)
MADRS Total Score Mean Change to Placebo (SD pooled) [9]: 0.3 (6.65)
MADRS Total Score Effect size [10]: −0.11
MADRS Total Score Mean Change from Baseline (SD) [10]: −9.2 (8.01)
MADRS Total Score Mean Change to Placebo (SD pooled) [10]: −0.9 (8.13)
MADRS Total Score Change from Baseline LSMean (SE), MMRM [11]: −3.2
MADRS Total Score LSMean Difference (SE) Treatment - Placebo, MMRM [11]: −1.2 (1.24)
MADRS Total Score Mean (SD) [11]: 25.4
MADRS Total Score Mean Change from Baseline (SD) [11]: −3.3
MADRS Total Score Mean Change to Placebo (SD pooled) [11]: −1.1 (4.52)
MADRS Total Score Mean Change from Baseline (SD) (eITT, Treatment Week 1, 10 mg adjunctive to SSRI/SNRI, listed as Aticaprant): −3.3 (5.21)
MADRS Total Score Effect size (eITT, Treatment Week 1, vs placebo, negative favors aticaprant): −0.24
MADRS Total Score Change from Baseline LSMean (SE), MMRM [12]: −5.6
MADRS Total Score LSMean Difference (SE) Treatment - Placebo, MMRM [12]: −1.5 (1.25)
MADRS Total Score Mean (SD) [12]: 23.1
MADRS Total Score Mean Change from Baseline (SD) [12]: −5.7
MADRS Total Score Mean Change to Placebo (SD pooled) [12]: −1.4 (6.18)
MADRS Total Score Mean Change from Baseline (SD) (eITT, Treatment Week 3, 10 mg adjunctive to SSRI/SNRI, listed as Aticaprant): −5.7 (6.38)
MADRS Total Score Effect size (eITT, Treatment Week 3, vs placebo, negative favors aticaprant): −0.22
MADRS Total Score Change from Baseline LSMean (SE), MMRM [13]: −7.3
MADRS Total Score LSMean Difference (SE) Treatment - Placebo, MMRM [13]: −1.1 (1.25)
MADRS Total Score Mean (SD) [13]: 21.5
MADRS Total Score Mean Change from Baseline (SD) [13]: −7.3
MADRS Total Score Mean Change to Placebo (SD pooled) [13]: −0.9 (7.00)
MADRS Total Score Mean Change from Baseline (SD) (eITT, Treatment Week 4, 10 mg adjunctive to SSRI/SNRI, listed as Aticaprant): −7.3 (7.35)
MADRS Total Score Effect size (eITT, Treatment Week 4, vs placebo, negative favors aticaprant): −0.14
MADRS Total Score Change from Baseline LSMean (SE), MMRM [14]: −8.7
MADRS Total Score LSMean Difference (SE) Treatment - Placebo, MMRM [14]: −1.5 (1.25)
MADRS Total Score Mean (SD) [14]: 20.5
MADRS Total Score Mean Change from Baseline (SD) [14]: −8.4
MADRS Total Score Mean Change to Placebo (SD pooled) [14]: −1.1 (7.25)
MADRS Total Score Mean Change from Baseline (SD) (eITT, Treatment Week 5, 10 mg adjunctive to SSRI/SNRI, listed as Aticaprant): −8.4 (7.36)
MADRS Total Score Effect size (eITT, Treatment Week 5, vs placebo, negative favors aticaprant): −0.14
percentage of subjects with MADRS remission (MADRS total score ≤10) (eITT, Treatment Week 6): 16.9%
percentage of subjects with ≥30% improvement in MADRS total score (eITT, Treatment Week 6): 57.6%
percentage of subjects with ≥50% improvement in MADRS total score (eITT, Treatment Week 6): 35.6%
MADRS Total Score Change from Baseline LSMean (SE), MMRM [15]: −10.1
MADRS Total Score Mean (SD) [15]: 18.6
MADRS Total Score Mean Change from Baseline (SD) [15]: −10.2 (8.44)
MADRS Total Score Mean Change to Placebo (SD pooled) [15]: −2.0 (8.49)
MADRS total score change, difference between aticaprant and placebo (eITT, Treatment Week 6, high anhedonia level (SHAPS total score ≥38 at treatment baseline)): −3.4
MADRS total score observed effect size (eITT, Treatment Week 6, high anhedonia level (SHAPS ≥38)): 0.38
MADRS total score observed effect size (eITT, Treatment Week 6, low anhedonia level (20≤ SHAPS <38)): 0.11
MADRS total score change, difference between aticaprant and placebo (eITT, Treatment Week 6, low anhedonia level (20≤ baseline SHAPS total score <38)): −0.9
MADRS Total Score Effect size (eITT, Treatment Week 6, vs placebo, negative favors aticaprant): 0.23
MADRS Total Score Effect size (eITT, Treatment Week 6, vs placebo, negative favors aticaprant, listed as Aticaprant): −0.23
MADRS LSMeans difference estimate, supplementary analysis of data collected prior to 15 Mar. 2020 (COVID-19) (eITT, vs placebo, MMRM): −3.0
MADRS Total Score Effect size [16]: −0.45
MADRS Total Score Mean Change from Baseline (SD) [16]: −4.4 (5.04)
MADRS Total Score Mean Change to Placebo (SD pooled) [16]: −2.0 (4.38)
MADRS Total Score Effect size [17]: −0.54
MADRS Total Score Mean Change from Baseline (SD) [17]: −6.9 (6.66)
MADRS Total Score Mean Change to Placebo (SD pooled) [17]: −3.8 (6.94)
MADRS Total Score Effect size (fITT Analysis Set, High anhedonia, Treatment Week 4): −0.50
